The results in this text go back to PubChem BioAssay AID540271 (Broad Institute, 2011).

Active and inactive are the calls of the source. How the calls were made is not given here.

In this assay the test system is S. cerevisiae expressing PfHSP40, growth rescue, plate reader. As to the kind of experiment: Yeast growth rescue from Plasmodium falciparum HSP40 toxicity, dose response confirmatory, plate reader (AID 540271).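 Further: yeast growth read after three days of incubation at 30 °C.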
With `NNC(=O)c1ccc2nc(-c3ccc(Br)cc3)cn2c1`, the AC50 was 6.47 µM.

In the case of `CCOC(=O)c1ccc(NC(=S)N(Cc2cccnc2)Cc2ccco2)cc1`, the concentration at half-maximal activity (AC50) is 6.54 µM.

Regarding `CSC1SCC2C(=O)N(C)C(C(C)C)C(=O)OCC(NC(=O)c3cnc4ccccc4n3)C(=O)NC(C)C(=O)N(C)C1C(=O)N(C)C(C(C)C)C(=O)OCC(NC(=O)c1cnc3ccccc3n1)C(=O)NC(C)C(=O)N2C` (centres undefined), the AC50 is > 12 µM (inactive).

For `Cc1cc(C(=O)N/N=C/c2cc(Br)cc([N+](=O)[O-])c2O)c2ccccc2n1`, the AC50 is 3.37 µM.

As to `Nc1[nH]c(=O)ncc1F`, the AC50 was 1.51 µM.

For `Clc1ccc(-c2n[nH]c3c2CCC3)cc1Cl`, the AC50 was 5.64 µM.

As for `CN(C)c1nc(-c2ccccn2)nnc1-c1ccccc1`, the AC50 is 5.25 µM.

With `O=C(Cc1ccccc1F)Nc1nc(-c2ccc(F)c(F)c2)cs1`, the concentration at half-maximal activity (AC50) is 6.72 µM.

Turning to `Cc1ccccc1Oc1nc(-c2ccccn2)nc2ccccc12`, the AC50 is 2.29 µM.

`CCOC(=O)c1c2c(n(-c3ccc(OC)cc3)c1C)C(=O)C(=O)c1ccccc1-2`: the AC50 is 3.97 µM.

As to `COc1ccc(C(=O)c2c(C(F)(F)F)oc3c2C(=O)c2ccccc2C3=O)cc1OC`, the AC50 was 6.24 µM.

For the compound `COC(=O)C1=C(C)NC(C)=C(C(=O)OCC(C)C)C1c1ccccc1[N+](=O)[O-]` (centres undefined), the AC50 is 5.87 µM.

For `COc1cc2c(c(OC)c1OC)-c1ccc(O)c(=O)cc1[C@@H](NC(C)=O)CC2`, the AC50 was 1.87 µM.

On to `O=[N+]([O-])c1cccc(C=NNc2ccc3ccccc3n2)c1O`, for which the AC50 was 1.69 µM.

For the compound `Cc1ccc(-c2nn(C(C)(C)C)c3ncnc(N)c23)cc1`, the AC50 is 1.28 µM.

For `O=C(COC(=O)c1ccc([N+](=O)[O-])o1)NC12CC3CC(CC(C3)C1)C2`, the AC50 is > 12 µM (inactive).

As to `CCN1/C(=C/c2sc(-c3ccccc3C)c[n+]2C)Sc2ccccc21`, the AC50 was 5.83 µM.

For the compound `O=P(Nc1cccnc1)(Oc1ccccc1Cl)Oc1ccccc1Cl`, the AC50 is 6.5 µM.

Turning to `O=C1c2cc(F)ccc2-n2c1nc1ccccc1c2=O`, the AC50 is 0.927 µM.

For `COc1ccc2cnn(CCOc3cc(C)ccc3C(C)C)c(=O)c2c1OC`, the AC50 is 5.9 µM.

Turning to `COc1nc(NC23CC4CC(CC(C4)C2)C3)nc(OC)n1`, the AC50 was 10.9 µM.

Regarding `O=C1/C(=C/c2cccs2)SC(=S)N1NS(=O)(=O)c1ccccc1`, the AC50 is 3.9 µM.

Regarding `CCC(C)n1ncn(-c2ccc(N3CCN(c4ccc(OCC5COC(Cn6cncn6)(c6ccc(Cl)cc6Cl)O5)cc4)CC3)cc2)c1=O` (centres undefined), the AC50 was 0.129 µM.

For the compound `O=S1OC(c2ccccc2)c2cc(Cl)ccc21` (centres undefined), the half-maximal activity concentration (AC50) was 10.8 µM.

`CCc1ccc(S(=O)(=O)N(C(=O)c2ccncc2)c2ccc(OC(=O)c3ccncc3)cc2)cc1`: the AC50 was 3.01 µM.

For `CCC1=NN(C(=O)c2cccc(Br)c2)C(O)(c2ccc(Br)cc2)C1` (centres undefined), the AC50 was 5.92 µM.

Regarding `NC(=O)N=Nc1c2[nH]c3ccccc3nc-2c2ccccc12`, the AC50 is 3.89 µM.

With `CC(/C=N/n1c(COc2ccccc2)n[nH]c1=S)=C\c1ccccc1`, the concentration at half-maximal activity (AC50) was 4.55 µM.

For the compound `CCOC(=O)N1C(=O)C2(CCCCC2)N(c2ccccc2Cl)C1=S`, the concentration at half-maximal activity (AC50) was 0.084 µM.

In the case of `COc1cc2c(c(OC)c1OC)-c1ccc(O)c(=O)cc1[C@@H](N)CC2`, the half-maximal activity concentration (AC50) is 2.52 µM.

As to `O=C(N/N=C/c1cc(Br)ccc1O)c1ccccc1Cl`, the AC50 is 4.83 µM.

Take `Cc1ccc(C(C[N+](=O)[O-])c2c(N)n(C)c(=O)n(C)c2=O)cc1` (centres undefined): the AC50 is 6.03 µM.

In the case of `O=C(C1=C(Nc2ccccc2)c2ccccc2S(=O)(=O)N1)c1ccccc1`, the AC50 was 5.09 µM.

`COC(=O)c1cccc2c1-c1ccccc1/C2=N/O`: the AC50 is 4.95 µM.

In the case of `CCOC(=O)c1cc2c(=Cc3ccc(N(C)C)cc3)c3ccccc3n2[n+]1C`, the AC50 is 3.75 µM.

For the compound `Cc1cc(C)c2sc(NNC(=O)c3ccc(S(=O)(=O)N4CCc5ccccc5C4)cc3)nc2c1`, the AC50 is 1.48 µM.

Turning to `C=CCN(CC=C)C(=S)NC(=O)c1ccc(OC)c(Br)c1`, the AC50 is 7.96 µM.

In the case of `Cc1ccc(-n2nnnc2SCC(=O)N2CCc3ccccc3C2)c(C)c1`, the AC50 was 5.8 µM.

Turning to `O=C(N/N=C/c1cc(Cl)cc([N+](=O)[O-])c1O)c1ccccc1NS(=O)(=O)c1cccs1`, the AC50 is 1.04 µM.

Consider `Cc1nc(SCc2ccc(OCCC(C)C)cc2)n[nH]1`, for which the AC50 is 3.08 µM.

For the compound `CCCCCCCCCCOC(=O)Cn1c(COc2ccccc2OC)[n+](C)c2ccccc21`, the AC50 was 6.39 µM.

Regarding `O=C1Nc2c(Br)cccc2C1=O`, the AC50 was 11.6 µM.

Consider `O=[N+]([O-])c1cc2oc3c(c2c(C=NCc2ccccc2)c1O)CCCC3`, for which the AC50 is 0.986 µM.

Turning to `O=C(Nc1ccc(Cl)cc1C(=O)Nc1ccc(Br)cn1)c1ccco1`, the AC50 was 3.64 µM.

Regarding `COc1ccc(C(=O)NC(=S)NNC(=O)CCc2ccccc2)cc1`, the AC50 is 5.29 µM.

On to `CC/C(=N/NC(=O)c1ccccc1O)c1c(C)[nH]n(-c2ccccc2)c1=O`, for which the AC50 was 0.705 µM.

On to `O=[N+]([O-])c1ccc(Sc2cccc[n+]2[O-])c2nonc12`, for which the AC50 is 2.43 µM.

Regarding `COc1ccc2[nH]c(=O)c(CN(Cc3cccnc3)C(=O)Nc3ccccc3)cc2c1`, the AC50 is 6.16 µM.

As for `CC(C)(C)c1ccc(Oc2ccc(N)cc2)cc1`, the AC50 was 7.32 µM.

For `Cc1nc2ccc(C(=O)NCc3ccc4c(c3)OCO4)cc2s1`, the AC50 was 4.51 µM.

Turning to `COc1cccc(/C=N/NC(=O)c2nc(-c3ccccc3)cc(-c3ccccc3)n2)c1O`, the AC50 is 3.51 µM.

Turning to `COC(=O)c1ccc(N2C(=O)CC(N(C)CCc3ccc(OC)c(OC)c3)C2=O)cc1` (centres undefined), the AC50 is 5.2 µM.

Regarding `CCCS(=O)(=O)c1c(S(=O)(=O)CCC)c2c(C)cccn2c1C(=O)N/N=C/c1cc(O)cc(O)c1`, the AC50 was 3.51 µM.

On to `Cc1cccc(N2CCN(C(=O)C3COc4ccccc4O3)CC2)c1C` (centres undefined), for which the AC50 was 6.72 µM.

Consider `Oc1ccc(Br)cc1/C=N/Nc1ccccn1`, for which the AC50 is 5.39 µM.

Regarding `CC(C)N1CCN(c2ccc(OCC3COC(Cn4cncn4)(c4ccc(Cl)cc4Cl)O3)cc2)CC1` (centres undefined), the AC50 was 2.01 µM.

For the compound `FC(F)(F)c1nc(SCc2ccc(Cl)cc2Cl)n[nH]1`, the AC50 is 6.21 µM.

For the compound `CCC(Oc1ccc(Br)cc1Cl)C(=O)Nc1nnc(C2CC2)s1` (centres undefined), the AC50 was 4.51 µM.

Take `C=CCn1c(-c2cc(-c3ccc(C)cc3)nc3ccccc23)n[nH]c1=S`: the AC50 was 5.81 µM.

Take `CCCCOC(=O)/C=C/c1ccc(OC(=O)OC)c(OC(=O)OC)c1`: the AC50 was 5.54 µM.

As for `C=CCc1ccc(O)c(-c2ccc(O)c(CC=C)c2)c1`, the AC50 is 4.8 µM.

For the compound `C=C(C)COc1ccc(-c2[nH]ncc2-c2ccccc2)c(O)c1`, the concentration at half-maximal activity (AC50) is 5.52 µM.

`CCOC(=O)c1cccc2c1-c1ccccc1/C2=N/O`: the AC50 is 6.3 µM.

Turning to `CC1Oc2ccccc2C=C1/C=N/Nc1ccc(C(=O)O)cc1` (centres undefined), the half-maximal activity concentration (AC50) is 10.1 µM.

As to `Cc1ccc(C(=O)C(SC(C)(C)C)n2cncn2)cc1` (centres undefined), the AC50 is 5.78 µM.

Turning to `CC(C)(CN1CCc2ccccc2C1)NS(=O)(=O)c1ccc(Cl)cc1`, the AC50 is 11 µM.

For the compound `CC(C)N1CCN(c2ccc(OC[C@H]3CO[C@](Cn4cncn4)(c4ccc(Cl)cc4Cl)O3)cc2)CC1`, the concentration at half-maximal activity (AC50) is 2 µM.

Take `CCN(CC)c1ccc(/C=C/c2ccc3ccc(OC)cc3[n+]2CC)cc1`: the AC50 was 5.78 µM.

With `Clc1cccc(N/N=C(\Cc2nc3ccccc3[nH]2)c2ccccc2)c1`, the AC50 was 9.04 µM.
